“Also recorded” adds a separate entry of the source. Where a SMILES comes first, the peptide text is derived from it. [ ]: non-standard residue; d: D form. Lys(Me3) = C[N+](C)(C)CCCC[C@H](N)C(=O)O
Key:
[1] = biological target: T1, PRC2-WT (EED/EZH2/SUZ12) (Homo sapiens, UniProt O75530+Q15910); test: Methyltransferase scintillation proximity assay, H3 (21-44) peptide substrate; type: biochemical; settings: for effect on catalytic activity of PRC2-WT: H3 peptide substrate, compound up to 100 µM, normalized to activity without compound; for kcat, H3(21–44), PRC2-WT: in the presence of 20 µM compound, peptide substrate, mean ± SD, n = 3
T1 construct: the full lengths of two components of the PRC2 complex, EED(1–441) and EZH2(1–751); EED(1–441) and EZH2(1–751) were cloned into pFastBac-Dual; made in house; host or cells: Sf9 insect cells (baculovirus co-infection)
T1 sequence (O75530 whole entry): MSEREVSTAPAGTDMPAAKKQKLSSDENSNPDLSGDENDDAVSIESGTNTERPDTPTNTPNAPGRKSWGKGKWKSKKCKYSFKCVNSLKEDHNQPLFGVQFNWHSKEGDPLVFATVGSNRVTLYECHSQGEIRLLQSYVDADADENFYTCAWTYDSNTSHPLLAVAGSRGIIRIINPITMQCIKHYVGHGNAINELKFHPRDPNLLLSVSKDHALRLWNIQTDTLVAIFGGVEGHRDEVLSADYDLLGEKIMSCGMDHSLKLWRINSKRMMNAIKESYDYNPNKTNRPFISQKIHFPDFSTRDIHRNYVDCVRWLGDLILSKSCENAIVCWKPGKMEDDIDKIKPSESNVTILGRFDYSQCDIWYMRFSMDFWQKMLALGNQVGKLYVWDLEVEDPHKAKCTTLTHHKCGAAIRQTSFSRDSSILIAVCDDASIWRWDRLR
T1 sequence (Q15910 1-751 isoform Q15910-2): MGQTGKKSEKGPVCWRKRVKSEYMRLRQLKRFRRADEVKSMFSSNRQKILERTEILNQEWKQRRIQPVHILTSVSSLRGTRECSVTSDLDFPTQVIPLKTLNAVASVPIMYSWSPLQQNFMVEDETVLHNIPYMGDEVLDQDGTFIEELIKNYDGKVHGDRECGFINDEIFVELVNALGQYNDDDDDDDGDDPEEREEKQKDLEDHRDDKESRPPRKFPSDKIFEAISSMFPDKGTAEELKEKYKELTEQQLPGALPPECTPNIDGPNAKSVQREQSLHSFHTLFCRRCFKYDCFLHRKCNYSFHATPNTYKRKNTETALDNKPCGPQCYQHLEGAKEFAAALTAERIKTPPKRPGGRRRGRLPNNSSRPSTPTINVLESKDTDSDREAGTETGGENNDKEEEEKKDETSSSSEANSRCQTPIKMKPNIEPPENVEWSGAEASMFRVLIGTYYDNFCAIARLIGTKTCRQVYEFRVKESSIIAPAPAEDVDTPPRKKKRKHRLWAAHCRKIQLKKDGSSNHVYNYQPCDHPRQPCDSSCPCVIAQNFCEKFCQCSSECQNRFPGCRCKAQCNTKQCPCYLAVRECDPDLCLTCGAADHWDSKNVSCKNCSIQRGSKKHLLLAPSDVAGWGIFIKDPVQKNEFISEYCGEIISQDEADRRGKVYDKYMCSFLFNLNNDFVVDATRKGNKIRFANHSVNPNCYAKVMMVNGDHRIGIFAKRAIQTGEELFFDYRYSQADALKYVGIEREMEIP
T1 sequence (Q15022 whole entry partner): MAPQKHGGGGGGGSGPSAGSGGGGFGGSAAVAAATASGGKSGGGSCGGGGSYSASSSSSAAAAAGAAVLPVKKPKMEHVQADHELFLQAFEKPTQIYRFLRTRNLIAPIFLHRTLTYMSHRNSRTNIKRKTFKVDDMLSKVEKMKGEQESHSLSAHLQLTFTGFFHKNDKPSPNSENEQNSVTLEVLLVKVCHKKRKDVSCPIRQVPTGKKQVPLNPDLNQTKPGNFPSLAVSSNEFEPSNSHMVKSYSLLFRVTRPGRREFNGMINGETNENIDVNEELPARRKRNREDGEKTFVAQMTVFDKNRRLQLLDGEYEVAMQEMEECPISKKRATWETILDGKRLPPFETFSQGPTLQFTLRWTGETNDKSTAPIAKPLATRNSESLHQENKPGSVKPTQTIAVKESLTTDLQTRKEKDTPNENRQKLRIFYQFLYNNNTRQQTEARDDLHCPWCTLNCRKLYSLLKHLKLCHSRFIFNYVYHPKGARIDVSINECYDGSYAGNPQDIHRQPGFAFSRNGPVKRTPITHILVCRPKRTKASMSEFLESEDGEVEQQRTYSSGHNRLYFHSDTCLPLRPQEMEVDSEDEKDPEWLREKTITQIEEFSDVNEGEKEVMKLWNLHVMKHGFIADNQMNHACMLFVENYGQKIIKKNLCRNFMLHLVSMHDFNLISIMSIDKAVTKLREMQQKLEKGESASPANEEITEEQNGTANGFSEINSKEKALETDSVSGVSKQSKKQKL
Protocol: (§1) Methyltransferase activity assay for WT PRC2 (EED/EZH2/SUZ12) or mutant PRC2-EED-I363M (EED/EZH2/SUZ12) was performed by monitoring the incorporation of tritium-labeled methyl group to lysine 27 of H3 (21–44) peptide using Scintillation Proximity Assay (SPA) or to human nucleosome using a filter-based assay. The enzymatic reactions were performed at 23 °C with 1 hour incubation of 10 µl reaction mixture in 20 mM Tris-HCl, pH 8, 5 mM DTT, and 0.01% Triton X-100 containing 2 µM of ^3H-SAM (Cat.# NET155V250UC; Perkin Elmer; www.perkinelmer.com), 1 µM of biotinylated H3 (21–44), 20 nM PRC2-WT or PRC2-mutant. To stop the reactions, 10 µL of 7.5 M Guanidine hydrochloride was added, followed by 200 µl of buffer (20 mM Tris, pH 8.0), mixed and transferred to a 96-well Streptavidin coated Flash-plate (Cat. # SMP410A001PK, PerkinElmer, http://www.perkinelmer.ca). After mixing, the mixtures in Flash-plate were incubated for 2 hours and the CPM counts were measured using Topcount plate reader (Perkin Elmer, www.perkinelmer.com).
(§2) The CPM counts in the absence of compound for each dataset were defined as 100% activity. In the absence of the enzyme, the CPM counts in each data set were defined as background (0%). All enzymatic reactions were performed in triplicate and the data were analyzed by GraphPad Prism 7 software.
(§3) Supplementary Figure S5. Testing the effect of 9 compounds on activity of WT- and EED-I363M mutant PRC2 complexes. Activities of WT- and mutant-PRC2 in the presence of each compound are normalized to activity of each protein complex in the absence of compound as 100%.
Experiments were performed using 20 nM of each WT or mutant PRC2 trimeric (EED/EZH2/SUZ12) complexes, 2 µM 3H-SAM, 1 µM biotin-H3 (21-44), and up to 100 µM of compounds, 20 mM Tris-HCl pH 8.0, 5 mM DTT and 0.01% Triton X-100. […]
(§4) Supplementary Figure S7. Determination of kcat values for WT- and EED- I363M mutant trimeric PRC2 complexes in the presence of activators. The kcat values were determined using (A) H3 (21-44) in the presence of 20 µM of each compound or (B) human nucleosome as a substrate in the presence of 200 µM of each compound. Experiments were […]
(§5) performed in triplicate under the following assay conditions:
(§6) (A) Peptide as substrate: 20 nM wildtype or EED-I363M mutant PRC2 (EED/EZH2/SUZ12), 2 µM biotinylated-H3 (21-44) peptide, various concentrations of 3H-SAM (up to 5 µM). […]
(§7) Reactions with both substrates were incubated for 30 min at 23°C in 20 mM Tris-HCl pH 8.0, 5

[2] = biological target: T2, PRC2-EED-I363M (EED/EZH2/SUZ12) (Homo sapiens, UniProt O75530+Q15910, I363M); test: as above; type: biochemical; settings: for effect on catalytic activity of PRC2-EED-I363M: H3 peptide substrate, normalized to activity without compound; for effect on catalytic activity of PRC2-EED-I363M / EC50: compound up to 100 µM; for EC50: 20 nM enzyme, 5 µM 3H-SAM, 2 µM biotin-H3 (21-44), 30 min, 23 °C, read-out: EC50 for activation of PRC2-EED-I363M; for increase of PRC2-EED-I363M kcat values: 20 µM compound, peptide as substrate; for kcat, H3(21–44), PRC2-EED-I363M: in the presence of 20 µM compound, peptide substrate, mean ± SD, n = 3
T2 construct: the full lengths of two components of the PRC2 complex, EED(1–441) and EZH2(1–751); EED(1–441) and EZH2(1–751) were cloned into pFastBac-Dual; made in house; host or cells: Sf9 insect cells (baculovirus co-infection)
T2 sequence (O75530 whole entry I363M): as the sequence (O75530 whole entry) above, with I363M counted along it
T2 sequence (Q15910 1-751 isoform Q15910-2, stated change not applied): as the sequence (Q15910 1-751 isoform Q15910-2) above
T2 sequence (Q15022 whole entry partner): as the sequence (Q15022 whole entry partner) above
Protocol: as §1, §2, §3
Experiments were performed using 20 nM of each WT or mutant PRC2 trimeric (EED/EZH2/SUZ12) complexes, 2 µM 3H-SAM, 1 µM biotin-H3 (21-44), and up to 100 µM of compounds, 20 mM Tris-HCl pH 8.0, 5 mM DTT and 0.01% Triton X-100.
Supplementary Figure S6. EC50 determination for activators. The EC50 values were determined […]
PRC2 mutant (EED/EZH2/SUZ12), 5 µM 3H-SAM, 2 µM biotin-H3 (21-44) and compound concentrations up to 100 µM. Reactions were incubated for 30 min at 23°C in 20 mM Tris-HCl pH 8.0, 5 mM DTT, 0.01% Triton X-100). Experiments were performed in triplicate. Data shown […]
as §4, §5, §6, §7

[3] = biological target: wildtype EED; settings: cited from earlier work
[4] = biological target: T2, PRC2-EED-I363M (EED/EZH2/SUZ12); test: Filter-based methyltransferase assay, human nucleosome substrate; type: biochemical; settings: for increase of PRC2-EED-I363M kcat values: human nucleosomes as substrate; for kcat, Human nucleosome, PRC2-EED-I363M: in the presence of 200 µM compound, nucleosome substrate, mean ± SD, n = 3
Protocol: (§8) Figure 3 Effect of compound 1, 2 and 4 on activity of PRC2-WT and PRC2-EED-I363M. Effect of the selected compounds on activity of PRC2-WT and PRC2-EED-I363M mutant were assessed using human nucleosome as a substrate. Experiments were performed in triplicate using 200 nM of enzyme, 2 µM 3H-SAM and 5 µM human nucleosome and 200 µM compounds incubated for 30 min at 23 °C in 20 mM Tris-HCl pH 8.0, 5 mM DTT, 0.01% Triton X-100.
(§9) A filter-based assay was used for human nucleosome as a substrate. The reactions were carried out at 23 °C with 0.5 hour incubation of 10 µl reaction mixture in 20 mM Tris-HCl, pH 8, 5 mM DTT, and 0.01% Triton X-100 containing 2 µM of ^3H-SAM (Cat.# NET155V250UC; Perkin Elmer; www.perkinelmer.com), 5 µM of human nucleosome, 200 nM PRC2-WT or PRC2 mutant. To stop the reactions, 50 µl of 10% TCA was added, mixed and transferred to filter-plates (Millipore; Cat.# MSFBN6B10; www.millipore.com). Plates were centrifuged at 2000 rpm (Allegra X-15R - Beckman Coulter, Inc.) for 2 min followed by two additional 10% TCA wash and one ethanol wash (180 µl) followed by centrifugation. Plates were dried and 100 µl MicroO (MicroScint-O; Cat.# 6013611, Perkin Elmer; www.perkinelmer.com) was added to each well, centrifuged and removed. 70 µl of MicroO was added again and CPM was measured using Topcount plate reader.
as §2, §4
(§10) performed in triplicate under the following assay conditions: […]
(§11) (B) Human nucleosome as a substrate: 200 nM wildtype or EED-I363M mutant trimeric PRC2 (EED/EZH2/SUZ12), various concentrations of 3H-SAM (up to 5 µM) and 5 µM human […]
as §7

[5] = biological target: T1, PRC2-WT (EED/EZH2/SUZ12); test: as above; type: biochemical; settings: for kcat, Human nucleosome, PRC2-WT: in the presence of 200 µM compound, nucleosome substrate, mean ± SD, n = 3
Protocol: as §8, §9, §2, §4, §10, §11, §7

Row | Compound | effect on catalytic activity of PRC2-WT [1] | effect on catalytic activity of PRC2-EED-I363M [2] | Kd [3] | kcat, H3(21–44), PRC2-WT [1] | EC50 [2] | increase of PRC2-EED-I363M kcat values [2] | kcat, H3(21–44), PRC2-EED-I363M [2] | increase of PRC2-EED-I363M kcat values [4] | kcat, Human nucleosome, PRC2-EED-I363M [4] | kcat, Human nucleosome, PRC2-WT [5] | effect on PRC2-WT catalytic activity ([5]; human nucleosome as substrate)
1 | CC(C)C[C@H](NC(=O)[C@H](Cc1ccccc1)NC(=O)[C@H](CCCCN(C)C(C)C)NC(=O)[C@@H]1C[C@@H]2CCCC[C@@H]2N1)C(N)=O [UNC5114, reference compound] | antagonized | minimal effects | 700 to 1100 nM |  |  |  |  |  |  |  | 
2 | CC(C)C[C@H](NC(=O)[C@H](Cc1ccccc1)NC(=O)[C@H](CCCC[N+](C)(C)C)NC(=O)[C@H](CCCNC(=N)N)NC(=O)[C@@H]1CCCN1)C(N)=O [compound 1] (H-PR[Lys(Me3)]FL-NH2) | minimal effects | significant increase |  | 0.00694 ± 0.00014 s⁻¹ | 2300 ± 400 nM | more than 2 fold | 0.00556 ± 0.00028 s⁻¹ | about 2 fold | 0.000361 ± 2.8e-06 s⁻¹ | 0.000472 ± 1.4e-05 s⁻¹ | 
3 | CC(C)C[C@H](NC(=O)[C@H](Cc1ccccc1)NC(=O)[C@H](CCCC[N+](C)(C)C)NC(=O)[C@H](CCCCN)NC(=O)[C@@H]1CCCN1)C(N)=O [compound 2] (H-PK[Lys(Me3)]FL-NH2) | minimal effects | significant increase |  | 0.00667 ± 0.00014 s⁻¹ | 2400 ± 400 nM | more than 2 fold | 0.00583 ± 0.00028 s⁻¹ | about 2 fold | 0.000417 ± 5.6e-06 s⁻¹ | 0.000444 ± 1.1e-05 s⁻¹ | weak inhibitor
4 | CC(C)CC(NC(=O)C(Cc1ccccc1)NC(=O)C(CCCC[N+](C)(C)C)NC(=O)C1CC2CCCCC2N1CCCCN)C(N)=O (stereo not drawn) [compound 3] | highest inhibition; also recorded: dose-dependent inhibitory potency | does not show any activator effect |  |  |  |  |  |  |  |  | 

Reference: publication PMC6484020, “Discovery of selective activators of PRC2 mutant EED-I363M” (Scientific Reports, 2019)
